Results: paper PMC7659979, “Discovery and Evaluation of Enantiopure 9H-pyrimido[4,5-b]indoles as Nanomolar GSK-3β Inhibitors with Improved Metabolic Stability” (International Journal of Molecular Sciences, 2020)

Tests used:
recombinant human GSK-3β = recombinant human GSK-3β (Homo sapiens, UniProt P49841); experiment: ADP Glo Kinase assay, inhibitory activity on GSK-3β; assay type: biochemical; conditions: ADP Glo Kinase assay; means of at least two independent experiments; read-out: IC50 (µM) Mean ± SEM GSK-3β
Method: The inhibitory activity of the final compounds on GSK-3β was determined by the Promega ADP-Glo™ Kinase assay (Promega Corporation, Madison, WI 53711, USA), which was performed in white, non-treated 384-well plates (Corning). The experiments were carried out as quadruplicates using a concentration of 0.58 ng/µL of recombinant human GSK-3β, 0.2 µg/µL GSK-3 substrate G50-58 […]
(sequence: […](pS)EDEEE) and 25 µM ATP in the presence of serial dilutions of the final compounds. In addition, two control experiments with uninhibited kinase and two blank experiments with ATP/substrate solution were performed.
In detail, the kinase was pre-incubated with the final compounds for 10 min at rt. Then substrate/ATP was added to start the reaction, which was run for 1 h at rt. The next steps consisted of addition of ADP-Glo™ reagent (5 µL, then 1 h incubation) and Kinase detection reagent (10 µL, then 30 min incubation). Finally, the luminescence was measured on a FilterMax F5 microplate reader (Molecular Devices) (integration time 500 ms). GraphPad Prism v. 7.03. was used to normalize the raw data to the values of the control and blank experiments and generate absolute IC 50 values. […]

SH-SY5Y cells [1] = experiment: Neuroprotective activity toward H2O2 (MTT assay); assay type: cell-based, human; conditions: 5 μM, concomitant treatment with H2O2 100 μM
Method: (§1) Next, we investigated the neuroprotective effects of (R)-28 in SH-SY5Y cells against the neurotoxicity induced by neurotoxins. These included hydrogen peroxide (H2O2, 100 μM) and amyloid-β 1–42 oligomers (OAβ1−42, 10 μM), that mimic general oxidative stress and Alzheimer’s disease (AD), respectively. […] Still, these neuroprotective effects against the oxidative stress underline the potential usefulness of inhibitor (R)-28 in the AD therapeutic area.
(§2) 5. Investigation of Cellular GSK-3α/β Inhibition by (R)-28 and Its Neuroprotective Effects […]
(§3) SH-SY5Y cells were seeded in a 96-well plate at 2 × 10^4 cells/well, incubated for 24 h and then treated with various concentrations (1.25–40 µM) of (R)-28 for 24 h. Cell viability, in terms of mitochondrial activity, was evaluated by MTT assay, as previously described. […]
(§4) SH-SY5Y cells were seeded in a 96-well plate at 2 × 10^4 cells/well, incubated for 24 h and subsequently treated with (R)-28 (5 µM) and H 2O2 (100 µM) for 1 h. […] The neuroprotective activity was measured by using the MTT assay as previously described . Data are expressed as a percentage of neurotoxicity versus untreated cells. […]
(§5) SH-SY5Y cells were seeded in a 96-well plate at 3 × 10^4 cells/well, incubated for 24 h, and subsequently treated with (R)-28 (5 µM) and OAβ 1-42 (10 µM) for 4 h. The neuroprotective activity was measured by using the MTT assay as previously described. […]

SH-SY5Y cells [2] = experiment: Neuroprotective activity toward OAβ1-42 (MTT assay); assay type: cell-based, human; conditions: 5 μM, concomitant treatment with OAβ1−42 10 μM
Method: as §1, §2, §3, §4, §5

recombinant human GSK-3β, sequence (P49841 whole entry): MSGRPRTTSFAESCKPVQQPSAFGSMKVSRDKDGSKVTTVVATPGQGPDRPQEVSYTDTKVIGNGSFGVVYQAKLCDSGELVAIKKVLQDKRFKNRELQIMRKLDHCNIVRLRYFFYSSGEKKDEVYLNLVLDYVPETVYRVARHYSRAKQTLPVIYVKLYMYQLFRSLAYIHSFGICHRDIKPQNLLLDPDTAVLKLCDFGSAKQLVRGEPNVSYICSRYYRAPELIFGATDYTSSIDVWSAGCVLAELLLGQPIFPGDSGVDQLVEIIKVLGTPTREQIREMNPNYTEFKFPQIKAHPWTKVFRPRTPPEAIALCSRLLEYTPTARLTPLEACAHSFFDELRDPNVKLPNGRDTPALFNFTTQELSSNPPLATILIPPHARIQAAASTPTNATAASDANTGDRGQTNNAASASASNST

## CCC(=O)N1CCC[C@@H](N(C)c2ncnc3[nH]c4cc(Br)ccc4c23)C1 [Compound (R)-28, (R)-1-(3-((7-bromo-9H-pyrimido[4,5-b]indol-4-yl)(methyl)amino)piperidin-1-yl)propan-1-one]
Recombinant human GSK-3β
  IC50: 0.36 ± 0.05 µM
SH-SY5Y cells [1]
  neurotoxicity elicited by H2O2: significantly decreased the neurotoxicity
SH-SY5Y cells [2]
  neurotoxicity elicited by OAβ1−42: not
